Laboratory results published in patent US20240108607A1, “METHOD FOR MANUFACTURING NOVEL NITROGEN-CONTAINING COMPOUND OR SALT THEREOF AND MANUFACTURING INTERMEDIATE OF NOVEL NITROGEN-CONTAINING COMPOUND OR SALT THEREOF” (FUJIFILM Corporation, priority 2015, published 2024).

Columns and labels:
integrin αvβ3 = integrin αvβ3 (Homo sapiens, UniProt P05106+P06756); test: Integrin αvβ3 binding affinity test (biotinylated vitronectin competition on immobilized integrin); settings: inhibition of biotinylated vitronectin binding
Description: Test Example 1 Integrin […] Binding Affinity Test
(§1) 0.2 μg/mL of δvβ3 was immobilized in a 96-well plates (Corning Incorporated) and then blocked using a 1% Block Ace (DS Pharma Biomedical Co., Ltd.) solution, and then the plate was washed with T-PBS (PBS containing 0.05% Tween 20). A 2× concentrated evaluation compound solution (10× concentration of 3.16× dilution from 0.3 μmol/L, buffer (20 mM Tris-HCl pH 7.5, 150 mM NaCl, 1 mM CaCl2), 1 mM MgCl2, 1 mM MnCl2)) and a 4 μg/mL biotinylated vitronectin solution (labeling vitronectin (Upstate Biotechnology Inc.) by using EZ-Link Sulfo-NHS-Biotinylation Kit (Pierce Protein Biology) and then adjusting concentration) were each added to the plate in an amount of 50 μL, and the plate was shaken for 2 hours at room temperature. The plate was washed with T-PBS, a 0.2 μg/mL avidin·peroxidase (Pierce Protein Biology) was added thereto, and the plate was shaken for 1 hour at room temperature. The plate was washed with T-PBS, an o-phenylenediamine (Sigma-Aldrich Co., LLC.) solution was added thereto such that color was produced (stopped using 4 mol/L sulfuric acid), and the absorbance (490 nm, Reference: 595 nm) was measured. The IC50 value was calculated using XLfit 3.0 (ID Business Solutions Ltd.). For each plate, as a QC sample, RGDfV (Bachem AG) was measured in duplicate. […]

integrin αvβ5 = integrin αvβ5 (Homo sapiens, UniProt P06756+P18084); test: Integrin αvβ5 binding affinity test (biotinylated vitronectin competition on immobilized integrin); settings: inhibition of biotinylated vitronectin binding
Description: Test Example 2 Integrin […] Binding Affinity Test
as §1, with “[…]” for “δvβ3”, “PBST (10 mM Na2HPO4 pH 7.5, 150 mM NaCl, 0.01%” for “T-PBS (PBS containing 0.05%”, “[…],” for “μmol/L,”, “PBST,” for “T-PBS,”, “[…] avidin-peroxidase” for “μg/mL avidin·peroxidase”

[1] = Radiochemical purity after standing at room temperature (reversed-phase TLC); type: physicochemical; settings: 22 hours
Description: A indium [^111In] chloride solution (80 MBq, 100 μL) was added to a mixture of the compound A (8.5 μg) and a 0.2 mol/L sodium acetate buffer solution (pH 4.0) (1.5 mL). The solution was heated to 100° C. for 15 minutes and then left to stand for 5 minutes at room temperature, thereby obtaining [^111In]-(compound A). […] The radiochemical purity measured immediately after the compound was prepared and measured after 24 hours at room temperature was equal to or higher than 95%.
A yttrium [^90Y] chloride solution (700 MBq, 240 μL) was added to a mixture of the compound (79 μg), gentisic acid (1.8 mg), a 0.6 mol/L sodium acetate buffer solution (pH 4.0, 120 μL), and 0.4 mol/L aqueous sodium hydroxide solution (24 μL). The solution was heated to 100° C. for 20 minutes and then left to stand for 5 minutes at room temperature, thereby obtaining [90^Y]-(compound A). […] The radiochemical purity measured immediately after the compound was prepared and measured after 24 hours at room temperature was equal to or higher than 95%.
A copper [^64Cu] chloride solution (pH 5, 35 MBq, 55 μL) was added to a mixture of the compound A (5.8 μg) and 0.2 mol/L sodium acetate buffer solution (pH 4.0, 219 μL). The solution was heated to 100° C. for 15 minutes and left to stand for 5 minute at room temperature, thereby obtaining [^64Cu]-(compound A). […] The radiochemical purity measured immediately after the compound was prepared and measured after 22 hours at room temperature was equal to or higher than 90%.
A 0.2 mol/L sodium acetate buffer solution of Copper [^64Cu] chloride (pH 4.0) (40 MBq, 155 μL) was added to a mixture of the compound B (4.2 μg), gentisic acid (1 mg), and a 0.2 mol/L sodium acetate buffer solution (pH 4.0) (5.0 μL). The solution was heated to 100° C. for 15 minutes and left to stand for 5 minutes at room temperature, thereby obtaining [^64Cu]-(compound B). […] The radiochemical purity measured immediately after the compound was prepared and measured after 24 hours at room temperature was equal to or higher than 90%.
A gallium [^67Ga] chloride solution (200 MBq, 63 μL) was added to a mixed solution of the compound A (21 μg), gentisic acid (1.0 mg), a 0.2 mol/L sodium acetate buffer solution (pH 4.0, 730.7 μL), and 4.5 mol/L aqueous sodium hydroxide solution (6.3 μL). The solution was heated to 100° C. for 15 minutes and then left to stand for 5 minutes at room temperature, thereby obtaining [^67Ga]-(compound A).
A lutetium [^177Lu] chloride solution (666 MBq, 333 μL) dissolved in a 0.2 mol/L sodium acetate buffer solution (pH 4.0) was added to a mixed solution of the compound A (70.0 μg), gentisic acid (1.8 mg), and a 0.2 mol/L sodium acetate buffer solution (pH 4.0, 83.3 μL). The solution was heated to 100° C. for 15 minutes and then left to stand for 5 minutes at room temperature, thereby obtaining [^177Lu]-(compound A).
A gallium [^67Ga] chloride solution (40 MBq, 11.7 μL) was added to a mixed solution of the compound B (4.1 μg), gentisic acid (1.0 mg), a 0.2 mol/L sodium acetate buffer solution (pH 4.5, 147.13 μL), and 4.5 mol/L aqueous sodium hydroxide solution (1.17 μL). The solution was heated to 100° C. for 15 minutes and then left to stand for 5 minutes at room temperature, thereby obtaining [^67Ga]-(compound B).

U87MG cells [2] = test: Radioactivity concentration of labeled compounds in tumor, U87MG subcutaneous transplantation; type: in vivo, mice (Balb/c AJcl-nu/nu); settings: caudal vein, 111In 740 kBq, 64Cu and 90Y 500 kBq
Description: Test Example 3 Evaluation based on radioactivity concentration of ^111In-labeled compound, ^64Cu-labeled compound, and ^90Y-labeled compound in tumor
After 2 to 3 weeks, at a point in time when the tumor volume became 200 to 500 mm^3, 3 mice were sorted into one group at each point in time. The ^111In-labeled compound (740 k Bq) was administered into the caudal vein, the animals were sacrificed after a certain period of time, and the tumor was extracted. The weight of the tumor was measured, the radioactivity was measured using a gamma counter, and the radioactivity concentration in tumor (% ID/g) was calculated. For the ^64Cu-labeled compound (500 k Bq) and the ^90Y-labeled compound (500 k Bq), the radioactivity concentration in tumor (% ID/g) was calculated by the same method.

U87MG cells [3] = test: Imaging of integrin expression tumor by PET; type: in vivo, mice (Balb/c AJcl-nu/nu); settings: 48 hours after administration, 4.8 MBq/mouse caudal vein
Description: Test Example 4 Imaging of Integrin Expression Tumor by Positron Emission Tomography (PET) Using [^64Cu]-(Compound A) and [^64Cu]-(Compound B)
After 2 weeks, [^64Cu]-(compound A) was administered at 4.8 MBq/mouse into the caudal vein of the mice with a tumor having a volume of […] to 650 mm^3. After 1, 4, 24, and 48 hours, the mice were imaged by microPET/CT (Inveon, Siemens Healthcare GmbH) under isoflurane anesthesia. […], whole blood was collected from the postcava under deep isoflurane anesthesia, the animals were euthanised, and then the tumor was extracted. The weight of the tumor was measured, the radioactivity was measured using a gamma counter, and the radioactivity concentration in tumor (% ID/g) was calculated. For [^64Cu]-(compound B), imaging was performed by the same method.
FIGS. 1 and 2 show PET images relating to each compound captured at each point in time. […] As a result, a hematoma matching with the image was found in the central portion. At the time of dissection (48 hours after administration), the radioactivity concentration in tumor was 5.6% ID/g.

[4] = Absorbed dose in a human being simulated with OLINDA/EXM 1.0 from monkey organ distribution
Description: Blood was collected from a crab-eating macaque over time, and by using [^111In]-(compound A), from the radioactivity concentration in the blood, kinetic parameters of the compound in blood were calculated by OLINDA/EXM 1.0. Furthermore, by using [^111In]-(compound A), from the organ distribution obtained by imaging, the absorbed dose of each organ obtained in a case where the compound is administered to a human being was calculated using OLINDA/EXM 1.0. [^111In]-(compound A) (98 MBq/9.3 μg) was administered to a crab-eating macaque (Hamri Co., Ltd., males, 3-year-old, 3.4 kg) under anesthesia. After the administration, blood was collected over time, and imaging was performed using a gamma camera. The blood was collected 10, 30, and 60 minutes after the administration and 2, 4, 5, 6, 24, 48, 72, and 144 hours after the administration. Regarding the imaging, after 1, 2, 4, 6, 24, 48, 72, and 144 hours, planar imaging was performed using a gamma camera (Symbia, Siemens Healthcare GmbH). Regarding the anesthesia, the animal was anesthetized with ketamine at 20 mg/kg before the administration of [^111In]-(compound A) and kept anesthetized until the end of imaging, which was continued for 6 hours after the administration, by inhalation anesthesia (isofluran 2 to 3%, 5 to 8 L/min). After 24 hours, ketamine (20 mg/kg) and xylazine (2 mg/kg) were administered to perform blood collection and imaging.
Furthermore, by using exposure dose analysis software OLINDA/EXM 1.0, the absorbed dose in a human being was simulated using each of the labeled compounds, and the results are shown below.

Structure (SMILES) | IC50 (integrin αvβ3) | IC50 (integrin αvβ5) | radiochemical purity immediately after preparation and after 22 hours at room temperature [1] | Radioactivity concentration in tumor After 4 hours (U87MG cells [2]; 4 hours) | Radioactivity concentration in tumor After 24 hours (U87MG cells [2]; 24 hours) | radioactivity concentration in tumor at the time of dissection (U87MG cells [3]) | Absorbed dose Brain [4] | Absorbed dose Kidney [4] | Absorbed dose Liver [4] | Absorbed dose Lung [4] | Absorbed dose Red marrow [4] | Absorbed dose Small intestine [4] | Absorbed dose Whole body [4]
Cc1cc(OCCCC(=O)NCCNC(=O)[C@H](CS(=O)(=O)O)NC(=O)CN2CCN(CC(=O)O)CCN(CC(=O)O)CCN(CC(=O)O)CC2)cc(C)c1S(=O)(=O)N[C@@H](CNC(=O)CCCCc1ccc2c(n1)NCCC2)C(=O)O [Compound A, 2,2′,2″-(10-(2-(((R)-1-((2-(4-(4-(N—((S)-1-carboxy-2-(5-(5,6,7,8-tetrahydro-1,8-naphthyridin-2-yl)pentanamide)ethyl)sulfamoyl)-3,5-dimethylphenoxy)butanamide)ethyl)amino)-1-oxo-3-sulfopropan-2-yl)amino)-2-oxoethyl)-1,4,7,10-tetraazacyclododecane-1,4,7-triyl)triacetic acid] | < 1 nM | < 1 nM | – | – | – | – | – | – | – | – | – | – | –
Cc1cc(OCCCC(=O)NCCNC(=O)[C@H](CS(=O)(=O)O)NC(=O)CC[C@H](C(=O)O)N2CCN(CC(=O)O)CCN(CC(=O)O)CC2)cc(C)c1S(=O)(=O)N[C@@H](CNC(=O)CCCCc1ccc2c(n1)NCCC2)C(=O)O [Compound B, 2,2′-(7-((R)-1-carboxy-4-(((R)-1-((2-(4-(4-(N—((S)-1-carboxy-2-(5-(5,6,7,8-tetrahydro-1,8-naphthyridin-2-yl)pentanamide)ethyl)sulfamoyl)-3,5-dimethylphenoxy)butanamide)ethyl)amino)-1-oxo-3-sulfopropan-2-yl)amino)-4-oxobutyl)-1,4,7-triazonane-1,4-diyl)diacetic acid] | < 1 nM | < 1 nM | – | – | – | – | – | – | – | – | – | – | –
Cc1cc(OCCCC(=O)NCCNC(=O)C(CS(=O)(=O)O)NC(=O)CN2CCN(CC(=O)[O-])CCN(CC(=O)O)CCN(CC(=O)[O-])CC2)cc(C)c1S(=O)(=O)NC(CNC(=O)CCCCc1ccc2c(n1)NCCC2)C(=O)O.[64Cu+2] (stereo not drawn) [[^64Cu]-(compound A)] | – | – | ≥ 90% | 9.25 % ID/g | 8.48 % ID/g | 5.6 % ID/g | 0.11 mGy/MBq | 0.69 mGy/MBq | 0.09 mGy/MBq | 0.08 mGy/MBq | 0.01 mGy/MBq | 0.06 mGy/MBq | 0.02 mGy/MBq
